Literature values as cited in patent EP1017727B1, “COMPOSITION AND PHARMACEUTICAL PREPARATION CONTAINING SAME FOR THE TREATMENT OF HERPES AND RELATED VIRAL INFECTIONS” (priority 1997, dated 1999).
Values after ≈ are worked out from the molar mass of the structure shown.

System: HSV-1

Molecule: O=Cc1cc(O)c(O)c(O)c1 [gallic aldehyde]
- IC50 against HSV-1: 12.5 µg/mL (≈ 81.1 µM)

Molecule: geponin
- IC50 against HSV-1: 25 µg/mL
